Reference: patent US10857113B2, “Bezafibrate for the treatment of cancer” (Cipla Limited, priority 2016, dated 2020)
Where two headings read alike, the source gives them in different places.

What was measured:
Format in all cases: cell-based
[1] = system: SN12C; assay: In vitro 3D clonogenic assay; settings: Homo sapiens, 3D model, colony formation, 8 to 13 days continuous exposure
Protocol: (§1) Cell lines were routinely passaged one or twice weekly. All cells were grown at 37° C. in a humidified atmosphere with 5% CO2 in RPMI 1640 medium (Biochrom) supplemented with 10% (v/v) fetal calf serum and 0.1 mg/mL gentamicin. The percentage of viable cells was determined in a Neubauer-hemocytometer using trypan blue exclusion.
(§2) Tumor xenografts (patient-derived, as well as cell line-derived xenografts) were passaged as subcutaneous xenografts in NMRI nu/nu mice. At a tumor volume of 400-1,000 mm^3 tumor-bearing mice were sacrificed and tumors were collected under sterile conditions without delay according to the relevant Oncotest SOPs and the relevant animal welfare guidelines published by the FELASA and the GV-SOLAS. Tumors were mechanically disaggregated and subsequently incubated with an enzyme cocktail consisting of collagenase type IV (41 U/mL), DNase I (125 U/mL), hyaluronidase type III (100 U/mL), and dispase II (1.0 U/mL) in RPMI 1640 medium (Life Technologies) at 37° C. for 60-120 minutes. Cells were passed through sieves of 100 μm and 40 μm mesh size (Cell Strainer, BD Falcon™), and washed with RPMI 1640 medium. The percentage of viable cells was determined in a Neubauer-hemocytometer using trypan blue exclusion. Aliquots of the cells were frozen down, and stored in liquid nitrogen. On each day of an experiment, a frozen aliquot of tumor cells was thawed and used for preparation of assay plates.
(§3) The clonogenic assay was carried out in a 96 well plate format using ultra low attachment plates. For each test, cells were prepared as described above and assay plates were prepared as follows: each test well contained a layer of semi-solid medium with tumor cells (50 and a second layer of medium supernatant with or without test compound (100 The cell layer consisted of 2.5·10^3 to 1·10^4 tumor cells per well, which were seeded in 50 μL/well cell culture medium (IMDM, supplemented with 20% (v/v) fetal calf serum, 0.01% (w/v) gentamicin, and 0.4% (w/v) agar). After 24 hours the test compounds were added after serial dilution in cell culture medium, and left on the cells for the duration of the experiment (continuous exposure, 100 μl drug overlay). Every plate included six untreated control wells and drug-treated groups in duplicate at 9 concentrations. Cultures were incubated at 37° C. and 7.5% CO2 in a humidified atmosphere for 8 to 13 days and monitored closely for colony growth using an inverted microscope. Within this period, ex vivo tumor growth led to the formation of colonies with a diameter of >50 μm. At the time of maximum colony formation, counts were performed with an automatic image analysis system (CellInsight NXT, Thermo Scientific). 48 hours prior to evaluation, vital colonies were stained with a sterile aqueous solution of 2-(4-iodophenyl)-3-(4-nitrophenyl)-5-phenyltetrazolium chloride (1 mg/ml, 100 μl/well).

[2] = system: RXF 1220L; assay: In vitro 3D clonogenic assay; settings: Homo sapiens, 3D model, colony formation, 8 to 13 days continuous exposure
Protocol: as §1, §2, §3

[3] = system: Caki-1; assay: In vitro 3D clonogenic assay; settings: Homo sapiens, 3D model, colony formation, 8 to 13 days continuous exposure
Protocol: as §1, §2, §3

[4] = system: 786-O; assay: In vitro 3D clonogenic assay; settings: Homo sapiens, 786-0, 3D model, colony formation, 8 to 13 days continuous exposure
Protocol: as §1, §2, §3

[5] = system: RXF 1781L; assay: In vitro 3D clonogenic assay; settings: Homo sapiens, 3D model, colony formation, 8 to 13 days continuous exposure
Protocol: as §1, §2, §3

[6] = system: A-498; assay: In vitro 2D assay (CellTiter-Blue); settings: Homo sapiens, A498, 2D model, 96 hour treatment
Text: (§4) Cell lines RXF 1183L, RXF 1220L, RXF 1781L, RXF 393L and RXF 486L were established at Oncotest from the corresponding human patient-derived xenograft. The cell lines 786-O, A-498, Caki-1 and SN12C were purchased from NCI (National Cancer Institute, Bethesda, Md., USA). ACHN was purchased from ECACC (European Collection of Cell Cultures, Salisbury, UK). Authenticity of cell lines was confirmed at the DSMZ by STR (short tandem repeat) analysis, a PCR based DNA-fingerprinting methodology.
(§5) Cell lines were routinely passaged once or twice weekly and maintained in culture for up to 20 passages. All cells were grown at 37° C. in a humidified atmosphere with 5% CO2 in RPMI 1640 medium (25 mM HEPES, with L-glutamine, # FG1385, Biochrom, Berlin, Germany) supplemented with 10% (v/v) fetal calf serum (Sigma, Taufkirchen, Germany) and 0.1 mg/mL gentamicin (Life Technologies, Karlsruhe, Germany).
(§6) Bezafibrate was dissolved at a concentration of 100 mM in 100% Methanol and next 1:5 diluted with cell culture media (20 mM, 20% Methanol). Starting with this solution, serial dilutions (1:1.6) were prepared with cell culture medium. Next, 150 μL of the serial dilutions were transferred to the assay plates upon removing the cell culture media of each well (complete change of medium on assay plates). Thus the final test concentrations were 10,240, 6,400, 4,000, 2,500, 1,563, 977, 610, and 381 μM. The maximum methanol concentrations were 6% and 10%. No precipitation was observed.
(§7) Cells were harvested from exponential phase cultures, counted and plated in 96-well flat-bottom microtiter plates at a cell density of 4,000-12,000 cells/well depending on the cell line's growth rate. After a 24 hour recovery period to allow the cells to resume exponential growth, test compounds were added. Compounds were applied at 8 to 10 concentrations in duplicate and treatment continued for 96 hour. After 96 hour treatment of cells, 20 μL/well CellTiter-Blue® reagent was added. Following an incubation period of up to four hours, fluorescence (FU) was measured by using the Enspire Multimode Plate Reader (excitation λ=531 nm, emission λ=615 nm).
(§8) For calculations, the mean values of duplicate/quadruplicate (untreated control) data were used. Sigmoidal concentration-response curves were fitted to the data points (T/C values) obtained for each cell line using 4 parameter non-linear curve fit.

[7] = system: RXF 393L; assay: In vitro 2D assay (CellTiter-Blue); settings: Homo sapiens, 2D model, 96 hour treatment
Text: as §4, §5, §6, §7, §8

[8] = system: RXF 486L; assay: In vitro 2D assay (CellTiter-Blue); settings: Homo sapiens, 2D model, 96 hour treatment
Text: as §4, §5, §6, §7, §8

[9] = system: RXF 1183L; assay: In vitro 2D assay (CellTiter-Blue); settings: Homo sapiens, 2D model, 96 hour treatment
Text: as §4, §5, §6, §7, §8

[10] = system: ACHN; assay: In vitro 2D assay (CellTiter-Blue); settings: Homo sapiens, 2D model
Text: as §4, §5, §6, §7, §8

[11] = system: SN12C; assay: In vitro 2D assay (CellTiter-Blue); settings: Homo sapiens, 2D model, 96 hour treatment
Text: as §4, §5, §6, §7, §8

[12] = system: RXF 1220L; assay: In vitro 2D assay (CellTiter-Blue); settings: Homo sapiens, 2D model
Text: as §4, §5, §6, §7, §8

[13] = system: Caki-1; assay: In vitro 2D assay (CellTiter-Blue); settings: Homo sapiens, 2D model, 96 hour treatment
Text: as §4, §5, §6, §7, §8

[14] = system: 786-O; assay: In vitro 2D assay (CellTiter-Blue); settings: Homo sapiens, 786-0, 2D model, 96 hour treatment
Text: as §4, §5, §6, §7, §8

[15] = system: RXF 1781L; assay: In vitro 2D assay (CellTiter-Blue); settings: Homo sapiens, 2D model, 96 hour treatment
Text: as §4, §5, §6, §7, §8

[16] = second run 381 to 10,240 μM, read-out: Absolute IC50
[17] = 96 hour treatment, read-out: Relative IC50
[18] = 96 hour treatment, second run 381 to 10,240 μM, read-out: Absolute IC50
[19] = first run 93 to 4,000 μM, read-out: IC50

IC50 ([1]; read-out: Absolute IC50): 0.463 mM
IC50 ([1]; read-out: Relative IC50): 0.463 mM
IC50 ([2]; read-out: Absolute IC50): 1.16 mM
IC50 ([2]; read-out: Relative IC50): 1.23 mM
IC50 ([3]; read-out: Absolute IC50): 1.29 mM
IC50 ([3]; read-out: Relative IC50): 1.29 mM
IC50 ([4]; read-out: Absolute IC50): 1.34 mM
IC50 ([4]; read-out: Relative IC50): 1.47 mM
IC50 ([5]; read-out: Absolute IC50): 1.03 mM
IC50 ([5]; read-out: Relative IC50): 1.1 mM
IC50 [10, 17]: 1.13 mM
IC50 [10, 18]: 1.05 mM
IC50 [10, 19]: 1.07 mM
IC50 [14, 16]: 0.795 mM
IC50 ([14]; read-out: Relative IC50): 1.07 mM
Compound: CC(C)(Oc1ccc(CCNC(=O)c2ccc(Cl)cc2)cc1)C(=O)O [Bezafibrate]
IC50 [6, 16]: 2.12 mM
IC50 ([6]; read-out: Relative IC50): 2.28 mM
IC50 [7, 16]: 1.04 mM
IC50 ([7]; read-out: Relative IC50): 1.64 mM
IC50 ([8]; read-out: Relative IC50): 1.33 mM
IC50 [8, 16]: 0.987 mM
IC50 [9, 16]: 0.96 mM
IC50 ([9]; read-out: Relative IC50): 1.06 mM
IC50 ([11]; read-out: Relative IC50): 1.21 mM
IC50 [11, 16]: 0.966 mM
IC50 [12, 18]: 1.93 mM
IC50 [12, 17]: 2.11 mM
IC50 [12, 19]: 3.41 mM
IC50 ([13]; read-out: Relative IC50): 1.4 mM
IC50 [13, 16]: 1.23 mM
IC50 ([15]; read-out: Relative IC50): 1.95 mM
IC50 [15, 16]: 1.86 mM
